In ChEMBL document CHEMBL1955844, “Discovery of a series of imidazopyrazine small molecule inhibitors of the kinase MAPKAPK5, that show activity using in vitro and in vivo models of rheumatoid arthritis” (Bioorg Med Chem Lett, 2012):

Experiments:
[1] = target: T1, MAP kinase-activated protein kinase 5 (Homo sapiens, UniProt Q8IW41); assay: Inhibition of MAPKAPK5
T1 sequence (Q8IW41 whole entry): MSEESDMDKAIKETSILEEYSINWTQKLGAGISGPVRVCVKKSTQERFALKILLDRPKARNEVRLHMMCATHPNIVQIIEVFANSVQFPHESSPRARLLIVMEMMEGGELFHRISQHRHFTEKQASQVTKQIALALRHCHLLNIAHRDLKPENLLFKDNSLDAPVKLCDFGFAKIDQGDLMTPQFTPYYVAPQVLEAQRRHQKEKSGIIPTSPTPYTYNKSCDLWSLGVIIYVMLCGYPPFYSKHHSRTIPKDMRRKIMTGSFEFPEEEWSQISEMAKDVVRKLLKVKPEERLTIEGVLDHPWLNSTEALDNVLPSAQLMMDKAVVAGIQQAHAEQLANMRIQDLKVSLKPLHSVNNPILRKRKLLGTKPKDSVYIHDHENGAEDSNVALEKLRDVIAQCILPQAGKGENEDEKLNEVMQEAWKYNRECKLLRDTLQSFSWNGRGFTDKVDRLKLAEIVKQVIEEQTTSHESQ

[2] = target: T1, MAP kinase-activated protein kinase 5; assay: Inhibition of MAPKAPK5 in synovial fibroblast from rheumatoid arthritis patient assessed as inhibition of TNF-alpha-induced MMP1 expression incubated for 30 mins prior to TNFalpha-challenge measured after 48 hrs by ELISA

`CN1CCN(c2ccc(Nc3ncc(-c4cc[nH]c(=O)c4)n4ncnc34)cc2)CC1` was tested, and the IC50 [1] was 3.73 µM.

Compound `c1cn2c(-c3ccc4[nH]ccc4c3)cnc(Nc3ccc(N4CCOCC4)cc3)c2n1` has an IC50 [1] greater than 10 µM.

Work on `NC(=O)c1ncc(-c2cnc(Nc3ccc(N4CCOCC4)cc3)c3nccn23)s1` yielded an IC50 [2] greater than 10 µM and an IC50 [1] of 3.2 µM.

`NC(=O)c1cnc(-c2cnc(Nc3ccc(N4CCOCC4)cc3)c3nccn23)s1` showed an IC50 [2] greater than 10 µM and an IC50 [1] of 2.82 µM.

`NC(=O)c1ccc(-c2cnc(Nc3ccc(N4CCOCC4)cc3)c3nccn23)cc1F` showed an IC50 [2] greater than 10 µM and an IC50 [1] of 2.39 µM.

Compound `CCOc1cc(-c2cnc(Nc3ccc(N4CCOCC4)cc3)c3nccn23)ccn1` has an IC50 [1] greater than 10 µM.

In the case of `NS(=O)(=O)c1ccc(-c2cnc(Nc3ccc(N4CCOCC4)cc3)c3nccn23)cc1`, the IC50 [2] is reported as greater than 10 µM and the IC50 [1] is reported as greater than 10 µM.

`CN(c1ccc(N2CCOCC2)cc1)c1ncc(-c2cn[nH]c2)n2ccnc12` showed an IC50 [1] greater than 10 µM.

In the case of `c1cn2c(-c3c[nH]nn3)cnc(Nc3ccc(N4CCOCC4)cc3)c2n1`, the IC50 [2] is reported as greater than 10 µM and the IC50 [1] is reported as 1.49 µM.

Work on `CN(C)c1cc(-c2cnc(Nc3ccc(N4CCOCC4)cc3)c3nccn23)ccn1` yielded an IC50 [1] greater than 10 µM.
